Where a name gives a salt, the structure may show the parent alone. Marks after values point to notes of the source that are not given here.
Experiments:
APP Tg mouse [1] = assay: Water maze test, APP transgenic mouse; format: in vivo; settings: dose 200 μg/kg body weight, time required for arriving the platform
APP Tg mouse [2] = assay: Passive avoidance test, APP transgenic mouse; format: in vivo; settings: dose 200 μg/kg body weight, five times a week for 12 weeks
[3] = test system: hamsters with cerebellar ataxia; assay: Rotarod test in hamsters with cerebellar ataxia; format: in vivo, hamster; settings: for Delayed days until the onset of cerebellar ataxia in hamster: 25 μg/kg body weight; for time (sec) endured until falling from rotarod apparatus: cerebellar ataxia hamsters, 25 μg/kg body weight i.p. once a day
From the text: (§1) Since NK-4 was confirmed to have a neurodegenerative inhibitory action in Experiment 1, hamsters with cerebellar ataxia (cerebellar ataxia is called “cerebellar A” and hamsters with cerebellar ataxia are called “hamsters with cerebellar A”, hereinafter) as a suitable model for human neurodegenerative diseases (e.g., spinal cerebellar degeneration) were subjected to examine the influence of NK-4 administration on their behaviors and brain tissues. Twenty-five hamsters with natural mutation (Nna1 inhibition), which are known to lose Purkinje's cells after three-weeks of age and then induce a spontaneous onset of kinetic motor ataxia after seven-weeks of age (see Akita K. et al., “J. Neurogenetics”, Vol. 21, pp. 19-29, 2007), had been fed at Hayashibara Biochemical Laboratories., Inc., Okayama, Japan, were randomly allocated to the test groups 1 to 5, five heads in each group, as shown in Table 2. Prior to the onset of cerebellar A (at three-weeks of age), PBS was started to administer to the hamsters in the test group 1 at a dose of 10 ml/kg/day. Prior to the onset of cerebellar A (at three-weeks of age), NK-4 was started to be administered to the hamsters in the test groups 2 to 4 at a daily dose of 20 μg/kg, 100 μg/kg or 500 μg/kg. “IGF-1, human, a product name of insulin-like growth factor, commercialized by Assaypro LLC, MO, USA. These administered ingredients were intraperitoneally administered daily to hamsters once a day up to 10-weeks of age. The degree of symptom of cerebellar A and the improvement effect on the symptom by NK-4 were evaluated with an index of improvement in motor coordination of hamsters by conducting once a week the later described rotarod test and the slant tolerance test. At the age of 10-weeks, the hamsters were subjected to counting the falling down frequency and extracted their brains, which were then histologically evaluated. In parallel, the concentration of glutamic acid in the bloods and cerebrospinal fluids (CSF) of the hamsters was assayed. As a test group 6, five normal hamsters, with the same age as the hamsters with cerebellar A used in the test groups 1 to 5, were provided and tested similarly as the hamsters with cerebellar A in such a manner of intraperitoneally administering PBS to them at a dose of 10 ml/kg/day once a day up to 10-weeks of age.
As an index for coordinated movement, it was used a duration time of hamster's movement to staying on a rotarod by locomotion in synchronization with the turn of the rotarod; placing a hamster on an apparatus with a rotarod (having a diameter of 60 mm, prepared by Hayashibara Biochemical Laboratories, Inc., Okayama, Japan), turning at a constant rate of six rpm, and measuring the time until the hamster falls down from the rotarod (see Fernandez et al., “Proc. Natl. Acad. Sci. USA”, Vol. 95, pp. 1253-1258, 1998). The test was repeated six times for each hamster, where five-times of tests starting from the initiation of the test were made as a preliminary examination, and the time until each hamster fell down from the rotarod (called “falling time”, hereinafter) was measured, followed by averaging the falling times for each group consisting of five heads. The falling time was measured until 180 seconds. Based on the results, the relationship between the age and the falling time for each hamster with cerebellar A (test group 1) administered with PBS was graphed. […]
Similarly as in Experiment 2, 130 hamsters with cerebellar ataxia, born within the same week and 3-weeks of age, were randomly divided into 13 groups, consisting of 10 hamsters, respectively. […]

[4] = test system: hamsters with cerebellar ataxia; assay: Falling down frequency of hamsters with cerebellar ataxia; format: in vivo, hamster; settings: cerebellar ataxia hamsters, 10-weeks of age; 25 μg/kg body weight i.p. once a day
From the text: as §1
Hamsters, 10-weeks of age, were respectively housed in a breeding cage. Their falling down frequencies within one minute were counted under a macroscopic observation and the data from five heads in each group were averaged. For reference, the hamsters with cerebellar A used in this experiment are known to increase their falling down frequencies after nine weeks of age.
(§2) Similarly as in Experiment 2, 130 hamsters with cerebellar ataxia, born within the same week and 3-weeks of age, were randomly divided into 13 groups, consisting of 10 hamsters, respectively. […] The hamsters (10 heads) in the remaining one group were intraperitoneally administered from their age of 3- to 10-weeks with a sterilized 10% maltose solution (pyrogen-free) in an amount of 0.5 ml/hamster (control) once a day for 56 days At the next day after the end of the administration, body weight of each hamster was weighed, followed by performing rotarod test, slope endurance test, and counting of falling down frequency. The types of compounds applied to each group and the results are in Table 25.

[5] = test system: hamsters with cerebellar ataxia; assay: Histological evaluation of cerebellum of hamsters with cerebellar ataxia; format: in vivo, hamster; settings: 10-weeks of age, 25 μg/kg body weight
From the text: as §1
Hamsters, 10-weeks of age, after completion of test on coordinated movement such as a confirmation of falling down frequency were intraperitoneally received 50 mg/kg pentobarbital, bled from their postcavas to let them die, and extracted their cerebra and cerebella, followed by fixing them with a 10% by volume of formalin solution. The resulting cerebra and cerebella were photographed with a digital camera apart from a prescribed high position and measured diameters in sagittal and horizontal directions for each photograph. The volumes of cerebra and cerebella were respectively determined by calculating with the formula, (length of sagittal direction)^2×(length of horizontal direction)×0.5; and the data from five heads in each group were averaged. The hamsters with cerebella A used in this experiment are known to reduce cell density of Purkinje's cells and granular cells. Cerebellar slices, which had been cut out in sagittal direction, were stained with hematoxylin-eosin stain, and microscopically observed to count the total number of Purkinje's cells within a Purkinje's cell layer ([…] I to X) and the number of granular cells per unit area, and to confirm subjects in which demyelination was observed within their cerebellar white matters. The results are in Table 5 in parallel.

[6] = Body weight of hamsters with cerebellar ataxia during administration; format: in vivo, hamster; settings: compared between groups administered with PBS, NK-4 and IGF-1
[7] = test system: hamsters with cerebellar ataxia; assay: Concentration of glutamic acid in cerebrospinal fluid (CSF); format: in vivo, hamster; settings: 10-weeks of age, 25 μg/kg body weight
From the text: as §1
The content of glutamic acid, which is used for synthesizing gamma-amino butyric acid (GABA) as a main excitatory neurotransmitter and inhibitory neurotransmitter that regulate higher-order functions such as memory/learning in mammalian central nervous system, was assayed. In harvesting the brains from the above hamsters, they were blooded from their postcavas, followed by collecting CSF for use in the later described assay for glutamic acid concentration. […]

[8] = test system: hamsters with cerebellar ataxia; assay: Slant tolerance test in hamsters with cerebellar ataxia; format: in vivo, hamster; settings: cerebellar ataxia hamsters, 25 μg/kg body weight i.p. once a day
From the text: as §1
Hamsters were placed on a slope-angle-variable-board while keeping their heads upward, followed by determining the angle for allowing the hamsters to keep staying thereupon for five seconds for use as an endurable-slant-slope-angle test (see Rivlin et al., “J. Neurosurg.”, Vol. 47, pp. 577-581, […]). The initial slope angle was set to 25 degrees and increased by 5 degrees step by step. When a tested hamster in a static condition fell down within five seconds, the slope angle was decreased by one degree step by step, followed by judging the angle that allows the hamster to keep static staying for five seconds, measuring the tolerable slant-slope-angle, and averaging the data for five heads in each group.
as §2

COc1cc2c(cc1OC)C(=O)C(CC1CCN(Cc3ccccc3)CC1)C2 (centres unmarked) [Donepezil HCl]
Water maze test 1st day (APP Tg mouse [1]; 1st day): 120 ± 0 | Water maze test 2nd day (APP Tg mouse [1]; 2nd day): 77 ± 19 | Water maze test 3rd day (APP Tg mouse [1]; 3rd day): 53 ± 13 | Water maze test 4th day (APP Tg mouse [1]; 4th day): 62 ± 16 | Passive avoidance reaction (APP Tg mouse [2]): 200 ± 61 s

IGF-1: insulin-like growth factor, human, commercialized by Assaypro LLC
Delayed days until the onset of cerebellar ataxia in hamster ([3]; 5-Weeks): 1 days | Delayed days until the onset of cerebellar ataxia in hamster ([3]; 6-Weeks): 8 days | Delayed days until the onset of cerebellar ataxia in hamster ([3]; 7-Weeks): 1 days | Delayed days until the onset of cerebellar ataxia in hamster ([3]; 8-Weeks): 1 days | Delayed days until the onset of cerebellar ataxia in hamster ([3]; 9-Weeks): 0 days | Delayed days until the onset of cerebellar ataxia in hamster ([3]; 10-Weeks): 0 days | time (sec) endured until falling from rotarod apparatus ([3]; 4-Weeks): 126 ± 11 s | time (sec) endured until falling from rotarod apparatus ([3]; 5-Weeks): 63 ± 13 s | time (sec) endured until falling from rotarod apparatus ([3]; 6-Weeks): 43 ± 11 s | time (sec) endured until falling from rotarod apparatus ([3]; 7-Weeks): 21 ± 5 s | time (sec) endured until falling from rotarod apparatus ([3]; 8-Weeks): 9 ± 2 s | time (sec) endured until falling from rotarod apparatus ([3]; 9-Weeks): 6 ± 1 s | time (sec) endured until falling from rotarod apparatus ([3]; 10-Weeks): 6 ± 1 s | Falling down frequency (frequency/min) [4]: 11.4 ± 0.4 frequency/min | Cerebellar volume (mm^3) ([5]; cerebellar ataxia hamsters): 77.6 ± 6.1* mm^3 | Number of Purkinje cells (cells) ([5]; cerebellar ataxia hamsters): 71 ± 16 cells | Number of granular cells (cells/20000 μm^2) ([5]; cerebellar ataxia hamsters): 371 ± 11 cells/20000 μm^2 | Number of subject (head) with apparent demyelination in cerebellar white matter ([5]; five heads per group): 3 head | body weight of hamsters with cerebellar A, weighed once every week up to 10-weeks of age [6]: no significant difference | Concentration of glutamic acid in cerebrospinal fluid [7]: 7.9 ± 2.0 µM | endurable-slant-slope-angle (degree) ([8]; 4-Weeks): 44.4 ± 0.2 degree | endurable-slant-slope-angle (degree) ([8]; 5-Weeks): 41.8 ± 0.6 degree | endurable-slant-slope-angle (degree) ([8]; 6-Weeks): 40.2 ± 0.7 degree | endurable-slant-slope-angle (degree) ([8]; 7-Weeks): 41.6 ± 0.8 degree | endurable-slant-slope-angle (degree) ([8]; 8-Weeks): 35.6 ± 0.2 degree | endurable-slant-slope-angle (degree) ([8]; 9-Weeks): 35.2 ± 0.6 degree | endurable-slant-slope-angle (degree) ([8]; 10-Weeks): 33.0 ± 0.9 degree

— patent US20120035187A1 (priority 2009, published 2012)
